Results on two molecules are retold here after patent US7368582B2, “Amidomethyl-substituted 2-(4-sulfonylamino)-3-hydroxy-3,4-dihydro-2H-chromen-6-yl compounds, a process and intermediates for their production, and pharmaceutical compositions containing them” (Solvay Pharmaceuticals GmbH, priority 2003, dated 2008).

Series [1] concerns the target T1, Kv 1.3-potassium channel (Homo sapiens, UniProt P22001).
T1 construct: expressed in transfected cells; host or cells: CHO cells, stably transfected with the Kv 1.3 plasmid using DMRIE-C
Briefly: In-vitro Kv 1.3-potassium channel-blocking effect (membrane potential-sensitive fluorescent dye in transfected CHO cells). It is filed as cell-based. As to conditions: 10 μM test substance; CHO cells transfected with Kv 1.3; relative to reference margatoxin. An excerpt: 2. In-Vitro Investigation of the Kv 1.3-Potassium Channel-Blocking Effect of the Substances
In this test model, known oocytes of the Chinese hamster (═CHO) are used which are stably transfected with the Kv 1.3-potassium channel. The blockade of the cell-inherent Kv 1.3-potassium channel activity in the transfected cells is accompanied by a positive shift in the membrane potential from approx. −40 mV to −30 mV, whereas in the wild-type CHO cells investigated in parallel no significant shift in the membrane potential is triggered. A change in the membrane potential is thus connected to the reduction in the Kv 1.3-potassium channel activity. By blocking the Kv 1.3-potassium channels e.g. with substances of Formula I and the resulting change in the membrane potential, an accumulation of a membrane potential-sensitive fluorescent dye in intracellular compartments of the oocytes and ultimately increasing fluorescence occurs. The change in the membrane potential of the oocytes is therefore measured indirectly via the increase in fluorescence of the membrane potential-senstive dyes.
The cells were transfected with the Kv 1.3 plasmid in known manner with a commercially obtainable transfection reagent (DMRIE-C from Gibco BRL, Germany). The successful transfection was verified by immunofluorescence and by “patch-clamp” investigations of the potassium ion current. The fluorescence measurements were performed on a Tecan Safire fluorescence reader from Tecan, Germany. In each case, the increase in the fluorescent intensity caused by the blockade of the Kv 1.3-potassium channels in the oocytes with substances of Formula I in a concentration of 10 μM was determined as characteristic variable. The increase in the fluorescent intensity was given in each case in percent (%) compared with an increase in the fluorescent intensity caused by the reference substance margatoxin. Margatoxin is known as a selective Kv 1.3-potassium channel blocker (see e.g. M. Garcia-Calvo et al., J. Biol. Chem. 268 (1993) 18866-18874).

In series [2] the test system is left atrium of rats' hearts. Briefly: Functional refractory period prolongation on isolated left atria of rats' hearts in vitro. Further details: species or system rat (Sprague-Dawley). As to conditions: 10 μM. The method, then:
3. Investigation of the Functional Effectiveness of the Substances on the Atrium of Rats' Hearts in Vitro
In this test model it is determined to what extent the Kv 1.5-blocking substances of Formula I result in a prolongation of the functional refractory period in the left atrium of rats. The refractory period is the minimum possible elapsed time between the basic stimulus and additional stimulus in which a renewed contraction can be triggered. The extent of the prolongation of the functional refractory period is a measurement of the antiarrhythmic effectiveness of the substances according to the invention. The functional refractory period is determined by testing on the electrically stimulated preparation at what elapsed time from the preceding contraction a renewed contraction can be triggered by additional electrical stimuli.
The hearts were removed from freshly sacrificed rats (Sprague-Dawley, Charles-River, Germany). The left atria were isolated and fastened to force transducers in a temperature-controlled (30° C.), gasified (O2 95%, CO2 5%) organ bath which was filled with modified Tyrode solution (all values in mM: NaCl 137; KCl 2.7; CaCl2 1.8; MgCl2 0.8; NaHCO3 11.9; NaH2PO4 0.6; glucose 5). In order to trigger regular contractions, the preparations were electrically stimulated (rectangular pulses, pulse magnitude 3.5× threshold stimulus, pulse width 1.5 ms, frequency 1 Hz). Initially, the initial value of the functional refractory period was determined by applying extra pulses in addition to the basic stimulus, the elapsed time from the preceding basic stimulus being shortened until no further additional contraction could be triggered. Then the cumulative addition of increasing concentrations (0.1-10 μM) of the substances of Formula I took place at intervals of 20 min. each, the refractory period being determined again in each case 18 min. after the addition had taken place. Before the measurement, stock solutions of the test substances (3.2 and 0.32 mM in 100% DMSO) were prepared. In order to achieve the desired final concentrations of the substances (0.1-10 μM) in the organ bath (volume 100 ml), corresponding volumes of these stock solutions were then poured into the organ bath.
In each case the prolongation of the functional refractory period (FRP) in the left atrium of the rats' hearts in milliseconds observed after the addition of 10 μM of the respective substance of Formula I to the atrial preparations was given as characteristic variable.

Series [3] has as its system ventricle of guinea pigs. The experiment in a line: Functional effectiveness on guinea-pig hearts in vivo (ERP, QT, QRS, systolic blood pressure). As to conditions: 1 min. after 10 μmole/kg i.v.; for QRS / QT / syst. blood pressure (change): guinea pigs; for syst. blood pressure (change): minus effects due to the vehicle, negative values indicate reduction; for ERP: ventricle of guinea pigs, negative values indicate shortening. Further details: species or system guinea pig (Dunkin-Hartley). An excerpt: 4. Investigation of the Functional Effectiveness of the Substances on Guinea-Pig Hearts in Vivo
In the test model shown below, it was shown that the substances according to the invention at most have slight undesirable proarrhythmic effects on repolarization in the ventricle. To this end, the influence of the compounds of Formula I on the effective refractory period (ERP) and other influencing variables on guinea-pig hearts in vivo were investigated. In this test model, non-selective potassium channel blockers not in accordance with the invention, which also block HERG and/or KvLQT1 channels, result in undesirable prolongation of the ERP and the QT time on an electrocardiogram (═ECG). The QT time is likewise a measurement of the repolarization in the heart. Prolongations of both the ERP and the QT time, respectively, which are due to the substances were independently interpreted as indications of the risk of the occurrence of undesirable torsade-de-pointes arrhythmias. Furthermore, the QRS interval also was determined in each case from the ECG as a measurement of the ventricular rate of spread of stimulus. Even a prolongation of the QRS interval caused by a test substance is connected with an increased risk of undesirable pro-arrhythmic side-effects. Therefore in this test model the lack of an ERP and QT time prolongation signifies a low risk, but the occurrence of a relevant ERP and QT prolongation on the other hand signifies an elevated risk of undesirable pro-arrhythmic effects. Also the lack of a prolongation of the QRS interval which is due to the substances due to the substances of Formula I investigated indicates a low risk of undesirable pro-arrhythmic side-effects, since lack of QRS prolongation indicates an undisturbed spread of stimulus in the ventricle. Conversely, a QRS prolongation, which is typically triggered by Class I antiarrhythmic drugs indicates slowing of the conduction rate and may promote the occurrence of ventricular tachycardias to ventricular fibrillation.
Male guinea pigs (Dunkin-Hartley from Charles River) were anaesthetized (ketamine 50 mg/kg, xylazine 10 mg/kg) and each of them was provided with a venous access via one jugular vein for administration of compounds of Formula I or a vehicle. A bipolar stimulation catheter was fed into the right ventricle of the guinea pigs via the other jugular vein (stimulation frequency 5 Hz). The arterial blood pressure was measured by a catheter located in the carotid artery which was connected to a Statham pressure transducer. The ECG was recorded via needle electrodes. The measured data were digitized via an analog/digital converter, recorded on a computer with suitable software (Ponemah Physiology Platform from Gould, USA) and printed out in parallel on a multichannel printer. After an equilibration period of 45 min., increasing doses of the compounds of Formula I or of the vehicle were administered intravenously (=i.v.) to the guinea pigs at 12-minute intervals. Before the first administration and in each case one minute after administration of increasing doses (0.1−max. 30 μmole/kg) of the substances of Formula I, the effective refractory period was measured. For this, after five normal stimuli in each case an additional pulse was applied and the elapsed time thereof from the preceding pulse was increased until a heart action was triggered. The observed time interval corresponds to the ERP of the ventricular myocardium.
In order to detect possible effects of the test substances on the blood pressure, in the same test model after each administration of substance the systolic and diastolic blood pressure was determined and compared with the previous blood-pressure level. The parameters were recorded automatically 1 and 8 min. after each administration of substance.
Only statistically significant effects were listed, with a t-test with a significance limit of P<0.05 being used for the statistical testing.

Series [4] deals with hearts of anaesthetised cats. Briefly: Atrial and ventricular fibrillation threshold in anaesthetised cats in vivo. Further details: species or system cat. As to conditions: anaesthetized cats, dose 30 μmol/kg i.v. The source says: 5. Investigation of the Functional Effectiveness of the Substances on the Hearts of Anaesthetised Cats in Vivo
In the test model shown below, it was shown that the substances according to the invention at most have a marked atrial-selective effect on the heart. After administration of the substances according to the invention, a significant increase in the atrial fibrillation threshold—i.e. the current intensity at which atrial fibrillation occurs—was observed. At the same time, on the other hand, the ventricular fibrillation threshold is influenced only minimally.
Living cats were anaesthetised with chloralose/urethane (50/300 mg/kg i.v.) and were ventilated with ambient air. Then, following thoracotomy, stimulating electrodes were attached to the right atrium and the ventricle. The atrial and ventricular fibrillation threshold was determined in known manner by administration of rectangular pulses of increasing current intensity until atrial or ventricular fibrillation occurred (for performance see in detail: Br. J. Pharmac. 17 (1961) 167; Hdb. exp. Pharmacol. XVI/3 (1975) 131; Pharmacol. Res. 25 Suppl. 2 (1992) 156). The test substances of Formula I were dissolved in propylene glycol (80%) and administered intravenously in increasing doses (5-30 μmol/kg). Atrial and ventricular fibrillation thresholds were then determined at 5-minute intervals in known manner after the addition of the respective dose. The increase in the respective fibrillation threshold due to the substances investigated was expressed in percent of the value before administration of substance, i.e. a doubling of the fibrillation threshold corresponds to an increase of 100%.

Setting [5] is: percent of value before administration.

T1 sequence (P22001 whole entry): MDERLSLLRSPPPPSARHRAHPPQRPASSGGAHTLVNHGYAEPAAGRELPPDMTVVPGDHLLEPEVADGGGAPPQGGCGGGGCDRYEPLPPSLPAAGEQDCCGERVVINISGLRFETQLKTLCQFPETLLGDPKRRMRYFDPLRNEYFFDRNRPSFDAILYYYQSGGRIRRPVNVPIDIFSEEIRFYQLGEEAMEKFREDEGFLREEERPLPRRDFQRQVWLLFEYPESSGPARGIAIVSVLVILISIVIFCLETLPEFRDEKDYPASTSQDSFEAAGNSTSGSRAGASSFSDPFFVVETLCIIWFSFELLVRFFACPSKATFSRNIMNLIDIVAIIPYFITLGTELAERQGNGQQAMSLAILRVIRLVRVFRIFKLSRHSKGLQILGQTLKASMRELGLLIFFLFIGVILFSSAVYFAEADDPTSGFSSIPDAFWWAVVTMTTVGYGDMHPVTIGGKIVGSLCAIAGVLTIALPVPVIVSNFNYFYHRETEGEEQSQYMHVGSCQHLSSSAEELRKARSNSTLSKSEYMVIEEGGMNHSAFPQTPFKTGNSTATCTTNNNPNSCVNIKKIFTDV

For `CCc1ccc(S(=O)(=O)N[C@@H]2c3cc(CC(=O)NCc4ccccc4)ccc3OC(C)(C)[C@H]2O)cc1` [Example 11], the “Increase in the fluorescent intensity (% margatoxin)” value in series [1] is reported as 99 % margatoxin. In addition, in series [2], the FRP prolongation is recorded as 24 ms. Further, in series [3], the QRS entry was “n.s”, the QT result was “n.s”, the “syst. blood pressure (change)” value was “n.s” and the ERP result is “n.s”.
Turning to `CCc1ccc(S(=O)(=O)NC2c3cc(CC(=O)NC4CCCc5ccccc54)ccc3OC(C)(C)C2O)cc1` (centres unmarked) [Example 1, 2-(4-{[(4-Ethylphenyl)sulfonyl]amino}-3-hydroxy-2,2-dimethyl-3,4-dihydro-2H-chromen-6-yl)-N-1,2,3,4-tetrahydronaphth-1-yl acetamide], the FRP prolongation in series [2] is 15 ms. Further, in series [3], the QRS entry is on record as “n.s”, the QT result is reported as “n.s”, the “syst. blood pressure (change)” value is “n.s” and the ERP entry is recorded as “n.s”. Besides, the “Selectivity factor (AFT:VFT)” value in series [4] stood at 3. Further, in series [4] (setting [5]), the “AFT (increase in the atrial fibrillation threshold)” value is on record as 66% and the “VFT (increase in the ventricular fibrillation threshold)” value was 22%.
